Reference: patent US20030114403A1, “Method for treatment of cancers and antineoplastic pharmaceutical formulations” (CANADA Inc., priority 2001, published 2003)

Key:
Ehrlich ascites = Ehrlich ascites in A2G mice, single intraperitoneal treatment; conditions: for toxic side effects: animals followed up to one month
Protocol: Normal A2G mice were transplanted 24 hours prior to treatment with 1,000,000 Ehrlich ascites cells. Treatment procedures consisted of a single intraperitoneal injection of malachite green 4/mg/kg or brilliant green 2 mg/kg, with or without 0.7% levorotatory lactic acid.
A lot of 50 A2G mice with a bodyweight of approximately 25 g each were infected with Ehrlich ascites 48 hours prior to treatment. Treatment consisted of one intraperitoneal injection of 1.0 cm^3 brilliant green 1:20,000 solution (2 mg per kilogram) or 1.0 cm^3 of malachite green 1:10,000 (4 mg per kilogram), with 0.7% levorotatory lactic acid.

Ehrlich ascites cells = test: Transmission electron microscopy of Ehrlich ascites cells from intraperitoneal liquid after treatment; format: cell-based, A2G mice
[1] = single intraperitoneal injection, malachite green 4/mg/kg or brilliant green 2 mg/kg, with or without 0.7% levorotatory lactic acid

## CCN(CC)c1ccc(C(=C2C=CC(=[N+](CC)CC)C=C2)c2ccccc2)cc1 [brilliant green]
Ehrlich ascites; [1]
  toxic side effects: no obvious toxic side effects were observed

## CN(C)c1ccc(C(=C2C=CC(=[N+](C)C)C=C2)c2ccccc2)cc1 [malachite green]
Ehrlich ascites; [1]
  resolution of Ehrlich ascites: ability to resolve Ehrlich ascites
  toxic side effects: no obvious toxic side effects were observed
Ehrlich ascites; with lactic acid as specific vector and metabolite, in vitro and in vivo
  effect of blocking malignancies: irreversible effect of blocking malignancies both in vitro and in vivo
Ehrlich ascites cells; one i.p. injection of brilliant green 1:20,000 (2 mg per kilogram) or malachite green 1:10,000 (4 mg per kilogram) with 0.7% levorotatory lactic acid, samples at different times
  inactivation of malignant cells (electron microscope study of intraperitoneal liquid samples): complete inactivation of the malignant cells
Ehrlich ascites cells; twenty-four hours after the treatment
  lipid droplet synthesis (TEM): slowed down
Ehrlich ascites cells; two weeks post treatment
  morphology (TEM) of ascites cells in peritoneal fluid: characteristic cytostatic morphology consistent with interruption of cell cycling
